Test results: PMC12888861, “Antibacterial activity of enmetazobactam against Acinetobacter spp.: a molecular dissection of mechanism of action and resistance determinants” (Antimicrobial Agents and Chemotherapy, 2025)
In brackets after ≈: the same amount, converted by molar mass.

Legend:
[1] = system: carbapenem-resistant A. baumannii (CRAB) isolates (n = 67); assay: MIC, broth microdilution (EUCAST), carbapenem-resistant A. baumannii isolates; format: cell-based, Acinetobacter baumannii; conditions: ETZ fixed 8 mg/L in combinations
From the text: (§1) The bacterial strains used in this study comprised 208 clinical isolates from the Spanish National Acinetobacter spp. 2020 Multicenter Collection, which was previously characterized in detail by our research group, including whole-genome sequencing, phylogenetics studies, clonal dynamics, and resistance mechanisms ([2], [29]). Additionally, a collection of A. baumannii ATCC 17978 transformants coding the blaOXA-23, blaOXA-24/40, blaOXA-51, blaOXA-58, blaOXA-143, and blaOXA-201 genes, previously constructed and described by our group ([30]), was used to determine the activity of enmetazobactam against strains carrying the main CHDLs of A. baumannii.
(§2) The antimicrobial susceptibility of the 208 Acinetobacter spp. isolates was assessed using the broth microdilution method, as described in the European Committee on Antimicrobial Susceptibility Testing (EUCAST) v.15 guidelines (http://www.eucast.org/clinical_breakpoints). […] MICs for enmetazobactam alone were assessed as well. […] Subsequently, MIC testing was also conducted with a collection of A. baumannii ATCC 17978 transformants expressing clinically relevant OXA-like carbapenemase genes.
(§3) The A. baumannii ATCC 19606 strain was used as the reference strain in all susceptibility experiments, in duplicate assays. Antibiotics were purchased from Sigma-Aldrich, except enmetazobactam and durlobactam, which were obtained from Advanz Pharma and MedChemExpress, respectively.

[2] = system: carbapenem-susceptible A. baumannii isolates (n = 54); assay: MIC, broth microdilution (EUCAST), carbapenem-susceptible A. baumannii isolates; format: cell-based, Acinetobacter baumannii
From the text: as §1, §2, §3

[3] = Acinetobacter baumannii, carbapenem-susceptible A. baumannii isolates (n = 54), ETZ fixed 8 mg/L in combinations

With `C[n+]1ccn(C[C@@]2(C)[C@H](C(=O)[O-])N3C(=O)C[C@H]3S2(=O)=O)n1` [enmetazobactam] the “MIC distribution 4” value ([1]; cumulative share of CRAB isolates (n = 67) at MIC 4 mg/L) was 10.4, the “MIC distribution 8” value ([1]; cumulative share of CRAB isolates (n = 67) at MIC 8 mg/L) was 19.4 and the “MIC distribution 16” value ([1]; cumulative share of CRAB isolates (n = 67) at MIC 16 mg/L) was 25.4. For the same compound, the “MIC distribution 32” value ([1]; cumulative share of CRAB isolates (n = 67) at MIC 32 mg/L) was 41.8, the “MIC distribution 64” value ([1]; cumulative share of CRAB isolates (n = 67) at MIC 64 mg/L) was 100 and the “MIC distribution ≤0.06” value ([1]; cumulative share of CRAB isolates (n = 67) at MIC ≤0.06 mg/L) was 0. For the same compound, the “MIC distribution 0.12” value [2] was 0, the MIC ([2]; Acinetobacter baumannii, MBC set, isolate Ab1, A. baumannii ST 164, ADC-6, OXA-91, non-CHDLs-producing) was 2 µg/mL (≈ 6.36 µM) and the MIC ([2]; Acinetobacter baumannii, MBC set, isolate Ab11, A. baumannii ST 239, ADC-2, OXA-51, non-CHDLs-producing) was 2 µg/mL (≈ 6.36 µM). It also gave an MIC ([2]; Acinetobacter baumannii, MBC set, isolate Ab34, A. baumannii ST 2182, ADC-2, OXA-130, non-CHDLs-producing) of 4 µg/mL (≈ 12.7 µM), an MIC ([2]; Acinetobacter baumannii, isolate Ab1, ST 164, ADC-6, OXA-91, in combinations ETZ fixed at 8 mg/L) of 4 µg/mL and an MIC ([2]; Acinetobacter baumannii, isolate Ab11, ST 239, ADC-2, OXA-51, in combinations ETZ fixed at 8 mg/L) of 4 µg/mL. It also gave an MIC ([2]; Acinetobacter baumannii, isolate Ab34, ST 2182, ADC-2, OXA-130, in combinations ETZ fixed at 8 mg/L) of 4 µg/mL, an MIC ([2]; Acinetobacter baumannii, isolate Ab38, ST 866, ADC-2, OXA-385, in combinations ETZ fixed at 8 mg/L) of 4 µg/mL and an MIC ([2]; Acinetobacter baumannii, isolate Ab40, ST 2176, ADC-2, OXA-64, in combinations ETZ fixed at 8 mg/L) of 4 µg/mL. It also gave an MIC ([2]; Acinetobacter baumannii, isolate Ab50, ST 2176, ADC-2, OXA-64, in combinations ETZ fixed at 8 mg/L) of 4 µg/mL, an MIC ([2]; Acinetobacter baumannii, isolate Ab57, ST 1470, ADC-58, OXA-106, in combinations ETZ fixed at 8 mg/L) of 2 µg/mL and an MIC ([2]; Acinetobacter baumannii, isolate Ab58, ST 6, ADC-2, OXA-94, in combinations ETZ fixed at 8 mg/L) of 4 µg/mL. For the same compound, the MIC ([2]; Acinetobacter baumannii, isolate Ab61, ST 1639, ADC-7, OXA-64, in combinations ETZ fixed at 8 mg/L) was 4 µg/mL, the MIC ([2]; Acinetobacter baumannii, isolate Ab62, ST 265, ADC-2, OXA-91, in combinations ETZ fixed at 8 mg/L) was 4 µg/mL and the MIC ([2]; Acinetobacter baumannii, isolate Ab67, ST 1, ADC-11, OXA-69, in combinations ETZ fixed at 8 mg/L) was 4 µg/mL. For the same compound, the MIC ([2]; Acinetobacter baumannii, isolate Ab79, ST 106, ADC-11, OXA-78, in combinations ETZ fixed at 8 mg/L) was 4 µg/mL, the MIC ([2]; Acinetobacter baumannii, isolate Ab80, ST 2182, ADC-6, OXA-208, in combinations ETZ fixed at 8 mg/L) was 4 µg/mL and the MIC ([2]; Acinetobacter baumannii, isolate Ab81, ST 25, ADC-79, OXA-64, in combinations ETZ fixed at 8 mg/L) was 4 µg/mL. The MIC ([2]; Acinetobacter baumannii, isolate Ab93, ST 25, ADC-79, OXA-64, in combinations ETZ fixed at 8 mg/L) was 4 µg/mL, the MIC ([2]; Acinetobacter baumannii, isolate Ab95, ST 582, ADC-5, OXA-317, in combinations ETZ fixed at 8 mg/L) was 2 µg/mL and the MIC ([2]; Acinetobacter baumannii, isolate Ab96, ST 582, ADC-5, OXA-317, in combinations ETZ fixed at 8 mg/L) was 2 µg/mL. The MIC ([2]; Acinetobacter baumannii, isolate Ab100, ST 145, ADC-58, OXA-343, in combinations ETZ fixed at 8 mg/L) was 2 µg/mL, the MIC ([2]; Acinetobacter baumannii, isolate Ab110, ST 1623, ADC-3, OXA-70, in combinations ETZ fixed at 8 mg/L) was 4 µg/mL and the MIC ([2]; Acinetobacter baumannii, isolate Ab112, ST 193, ADC-like, OXA-120, in combinations ETZ fixed at 8 mg/L) was 2 µg/mL. For the same compound, the MIC ([2]; Acinetobacter baumannii, isolate Ab124, ST 2176, ADC-2, OXA-64, in combinations ETZ fixed at 8 mg/L) was 2 µg/mL, the MIC ([2]; Acinetobacter baumannii, isolate Ab127, ST 2176, ADC-2, OXA-64, in combinations ETZ fixed at 8 mg/L) was 4 µg/mL and the MIC ([2]; Acinetobacter baumannii, isolate Ab128, ST 2176, ADC-2, OXA-64, in combinations ETZ fixed at 8 mg/L) was 2 µg/mL. It also gave an MIC ([2]; Acinetobacter baumannii, isolate Ab130, ST 32, ADC-79, OXA-100, in combinations ETZ fixed at 8 mg/L) of 2 µg/mL, an MIC ([2]; Acinetobacter baumannii, isolate Ab131, ST 687, ADC-like, OXA-208, in combinations ETZ fixed at 8 mg/L) of 2 µg/mL and an MIC ([2]; Acinetobacter baumannii, isolate Ab132, ST 1112, ADC-79, OXA-89, in combinations ETZ fixed at 8 mg/L) of 2 µg/mL. It also gave an MIC ([2]; Acinetobacter baumannii, isolate Ab136, ST 2183, ADC-like, OXA-66, in combinations ETZ fixed at 8 mg/L) of 4 µg/mL, an MIC ([2]; Acinetobacter baumannii, isolate Ab139, ST 54, ADC-like, OXA-365, in combinations ETZ fixed at 8 mg/L) of 4 µg/mL and an MIC ([2]; Acinetobacter baumannii, isolate Ab142, ST 1, ADC-like, OXA-69, in combinations ETZ fixed at 8 mg/L) of 8 µg/mL. It also gave an MIC ([2]; Acinetobacter baumannii, isolate Ab143, ST 1328, ADC-76, OXA-408, in combinations ETZ fixed at 8 mg/L) of 4 µg/mL, an MIC ([2]; Acinetobacter baumannii, isolate Ab149, ST 1112, ADC-6, OXA-407, in combinations ETZ fixed at 8 mg/L) of 8 µg/mL and an MIC ([2]; Acinetobacter baumannii, isolate Ab150, ST 2184, ADC-like, OXA-64, in combinations ETZ fixed at 8 mg/L) of 4 µg/mL. The MIC ([2]; Acinetobacter baumannii, isolate Ab152, ST 132, ADC-2, OXA-120, in combinations ETZ fixed at 8 mg/L) was 4 µg/mL, the MIC ([2]; Acinetobacter baumannii, isolate Ab158, ST 2034, ADC-2, OXA-217, in combinations ETZ fixed at 8 mg/L) was 2 µg/mL and the MIC ([2]; Acinetobacter baumannii, isolate Ab163, ST 132, ADC-2, OXA-120, in combinations ETZ fixed at 8 mg/L) was 2 µg/mL. It also gave an MIC ([2]; Acinetobacter baumannii, isolate Ab167, ST 1623, ADC-like, OXA-345, in combinations ETZ fixed at 8 mg/L) of 2 µg/mL, an MIC ([2]; Acinetobacter baumannii, isolate Ab168, ST 1470, ADC-75, OXA-402, in combinations ETZ fixed at 8 mg/L) of 2 µg/mL and an MIC ([2]; Acinetobacter baumannii, isolate Ab170, ST 2110, ADC-4, OXA-338, in combinations ETZ fixed at 8 mg/L) of 4 µg/mL. The MIC ([2]; Acinetobacter baumannii, isolate Ab172, ST 2185, ADC-5, OXA-217, in combinations ETZ fixed at 8 mg/L) was 2 µg/mL, the MIC ([2]; Acinetobacter baumannii, isolate Ab185, ST 2, ADC-26, OXA-66, in combinations ETZ fixed at 8 mg/L) was 4 µg/mL and the MIC ([2]; Acinetobacter baumannii, isolate Ab187, ST 105, ADC-2, OXA-430, in combinations ETZ fixed at 8 mg/L) was 2 µg/mL. It also gave an MIC ([2]; Acinetobacter baumannii, isolate Ab188, ST 203, ADC-6, OXA-217, PDC-1, in combinations ETZ fixed at 8 mg/L) of 4 µg/mL, an MIC ([2]; Acinetobacter baumannii, isolate Ab189, ST 1405, ADC-3, OXA-120, in combinations ETZ fixed at 8 mg/L) of 2 µg/mL and an MIC ([2]; Acinetobacter baumannii, isolate Ab190, ST 2186, ADC-6, OXA-413, in combinations ETZ fixed at 8 mg/L) of 2 µg/mL. The MIC ([2]; Acinetobacter baumannii, isolate Ab193, ST 164, ADC-6, OXA-91, in combinations ETZ fixed at 8 mg/L) was 2 µg/mL, the MIC ([2]; Acinetobacter baumannii, isolate Ab195, ST 1, ADC-11, OXA-69, in combinations ETZ fixed at 8 mg/L) was 2 µg/mL and the MIC ([2]; Acinetobacter baumannii, isolate Ab200, ST 1336, ADC-2, OXA-51, in combinations ETZ fixed at 8 mg/L) was 2 µg/mL. It also gave an MIC ([2]; Acinetobacter baumannii, isolate Ab202, ST 1, ADC-11, OXA-69, in combinations ETZ fixed at 8 mg/L) of 2 µg/mL, an MIC ([2]; Acinetobacter baumannii, isolate Ab203, ST 221, ADC-6, OXA-88, in combinations ETZ fixed at 8 mg/L) of 2 µg/mL and an MIC ([2]; Acinetobacter baumannii, isolate Ab206, ST 2187, ADC-58, OXA-69, in combinations ETZ fixed at 8 mg/L) of 2 µg/mL. It also gave an MIC ([2]; Acinetobacter baumannii, isolate Ab209, in combinations ETZ fixed at 8 mg/L) of 1 µg/mL, an MIC ([2]; Acinetobacter baumannii, isolate Ab213, in combinations ETZ fixed at 8 mg/L) of 2 µg/mL and an MIC ([2]; Acinetobacter baumannii, isolate Ab218, in combinations ETZ fixed at 8 mg/L) of 2 µg/mL. It also gave an MIC ([2]; Acinetobacter baumannii, isolate Ab220, in combinations ETZ fixed at 8 mg/L) of 1 µg/mL, an MIC50 [2, 3] of 2 µg/mL and an MIC90 [2, 3] of 4 µg/mL. For the same compound, the “MIC distribution 0.25” value ([2]; cumulative share of carbapenem-susceptible A. baumannii isolates (n = 54) at MIC 0.25 mg/L, ETZ fixed 8 mg/L in combinations) was 0, the “MIC distribution 0.5” value ([2]; cumulative share of carbapenem-susceptible A. baumannii isolates (n = 54) at MIC 0.5 mg/L, ETZ fixed 8 mg/L in combinations) was 0 and the “MIC distribution 1” value ([2]; cumulative share of carbapenem-susceptible A. baumannii isolates (n = 54) at MIC 1 mg/L, ETZ fixed 8 mg/L in combinations) was 3.7. For the same compound, the “MIC distribution 2” value ([2]; cumulative share of carbapenem-susceptible A. baumannii isolates (n = 54) at MIC 2 mg/L, ETZ fixed 8 mg/L in combinations) was 51.9, the “MIC distribution 4” value ([2]; cumulative share of carbapenem-susceptible A. baumannii isolates (n = 54) at MIC 4 mg/L, ETZ fixed 8 mg/L in combinations) was 96.3 and the “MIC distribution 8” value ([2]; cumulative share of carbapenem-susceptible A. baumannii isolates (n = 54) at MIC 8 mg/L, ETZ fixed 8 mg/L in combinations) was 100. For the same compound, the “MIC distribution 16” value ([2]; cumulative share of carbapenem-susceptible A. baumannii isolates (n = 54) at MIC 16 mg/L, ETZ fixed 8 mg/L in combinations) was 100, the “MIC distribution ≤0.06” value ([2]; cumulative share of carbapenem-susceptible A. baumannii isolates (n = 54) at MIC ≤0.06 mg/L, ETZ fixed 8 mg/L in combinations) was 0 and the “MIC distribution ≥32” value ([2]; cumulative share of carbapenem-susceptible A. baumannii isolates (n = 54) at MIC ≥32 mg/L, ETZ fixed 8 mg/L in combinations) was 100.
